Key:
[1] = tested on: rabbit serum obtained by immunizing a rabbit with the SARS-CoV strain Frankfurt 1; format: binding; parameters: Binding of a rabbit serum to linear peptides / Binding of a rabbit serum to looped peptides / Rabbit serum linear peptides / Rabbit serum looped peptides / Binding of a rabbit serum to linear peptides of protein N of SARS-CoV Urbani (Rabbit serum linear peptides) / Binding of a rabbit serum to looped/cyclic peptides of protein N of SARS-CoV Urbani (Rabbit serum looped peptides): unit not given here
[2] = tested on: control sera (pooled serum of ten healthy LUMC hospital workers; commercial negative donor pooled serum from the Dutch bloodbank); format: binding, human; parameters: Binding of Control serum LUMC to linear peptides / Binding of Control serum Blood-bank to linear peptides / Binding of Control serum LUMC to looped peptides / Binding of Control Serum Blood-Bank to Looped peptides / Binding of Control serum LUMC to linear peptides of the protein M of SARS-CoV Urbani / Binding of Control serum Blood-bank to linear peptides of the protein M of SARS-CoV Urbani / Binding of Control serum LUMC to looped peptides of the protein M of SARS-CoV Urbani / Binding of Control Serum Blood-Bank to Looped peptides of the protein M of SARS-CoV Urbani: unit not given here
[3] = tested on: antibodies in sera from SARS patients (sera 1a, 1b, 2, 6, 37, 62, London, SARS-yellow, SARS-green); format: binding, human; parameters: Binding of serum 6 to linear peptides of protein X1 of SARS-CoV Urbani / Binding of serum 37 to linear peptides of protein X1 of SARS-CoV Urbani / Binding of serum 6 to looped/cyclic peptide (PEPSCAN-ELISA) / Binding of serum 37 to looped/cyclic peptide (PEPSCAN-ELISA) / Binding of serum 37 to looped/cyclic peptides of protein X1 of SARS-CoV Urbani / Binding of serum 6 to linear peptides of protein X2 / Binding of serum 37 to linear peptides of protein X2 / Binding of serum 37 to looped/cyclic peptides of protein X2 of SARS-CoV Urbani / Binding of serum 6 to linear peptides of protein M of SARS-CoV Urbani / Binding of serum 37 to linear peptides of protein M of SARS-CoV Urbani / Binding of serum 6 to looped/cyclic peptides of protein M of SARS-CoV Urbani / Binding of serum 37 to looped/cyclic peptides of protein M of SARS-CoV Urbani / Binding of serum 6 to linear peptides of protein X3 of SARS-CoV Urbani / Binding of serum 37 to linear peptides of protein X3 of SARS-CoV Urbani / Binding of serum 37 to looped/cyclic peptides of protein X3 of SARS-CoV Urbani / Binding of serum 6 to linear peptides of protein X4 of SARS-CoV Urbani / Binding of serum 37 to linear peptides of protein X4 of SARS-CoV Urbani / Binding of serum 37 to looped/cyclic peptides of protein X4 of SARS-CoV Urbani / Binding of serum 6 to linear peptides of protein X5 of SARS-CoV Urbani / Binding of serum 37 to linear peptides of protein X5 of SARS-CoV Urbani / Binding of serum 37 to looped/cyclic peptides of protein X5 of SARS-CoV Urbani / Binding of serum 6 to linear peptides of protein N of SARS-CoV Urbani / Binding of serum 37 to linear peptides of protein N of SARS-CoV Urbani / Binding of serum 6 to linear peptide (PEPSCAN-ELISA) / Binding of serum 1a to looped/cyclic peptides of protein N of SARS-CoV Urbani / Binding of serum 1b to looped/cyclic peptides of protein N of SARS-CoV Urbani / Binding of serum 2 to looped/cyclic peptides of protein N of SARS-CoV Urbani / Binding of serum 6 to looped/cyclic peptides of protein N of SARS-CoV Urbani / Binding of serum 37 to looped/cyclic peptides of protein N of SARS-CoV Urbani / Binding of serum 62 to looped/cyclic peptides of protein N of SARS-CoV Urbani / Binding of serum London to looped/cyclic peptides of protein N of SARS-CoV Urbani / Binding of serum SARS-green to looped/cyclic peptides of protein N of SARS-CoV Urbani: unit not given here

FTSCELYHYQECVRG
Rabbit serum linear peptides [1]: 0.4
Rabbit serum looped peptides [1]: 0.3
Binding of Control Serum Blood-Bank to Looped peptides [2]: 0.8
Binding of Control serum Blood-bank to linear peptides [2]: 0.7
Binding of Control serum LUMC to linear peptides [2]: 0.7
Binding of Control serum LUMC to looped peptides [2]: 0.8
Binding of serum 1a to linear peptides of protein X4 of SARS-CoV Urbani [3]: 0.8
Binding of serum 1a to looped/cyclic peptides of protein X4 of SARS-CoV Urbani [3]: 0.8
Binding of serum 1b to linear peptides of protein X4 of SARS-CoV Urbani [3]: 0.7
Binding of serum 1b to looped/cyclic peptides of protein X4 of SARS-CoV Urbani [3]: 0.7
Binding of serum 2 to linear peptides of protein X4 of SARS-CoV Urbani [3]: 0.5
Binding of serum 2 to looped/cyclic peptides of protein X4 of SARS-CoV Urbani [3]: 0.6
Binding of serum 6 to linear peptides of protein X4 of SARS-CoV Urbani [3]: 0.9
Binding of serum 6 to looped/cyclic peptides of protein X4 of SARS-CoV Urbani [3]: 0.6
Binding of serum 37 to linear peptides of protein X4 of SARS-CoV Urbani [3]: 0.8
Binding of serum 37 to looped/cyclic peptides of protein X4 of SARS-CoV Urbani [3]: 0.8
Binding of serum 62 to linear peptides of protein X4 of SARS-CoV Urbani [3]: 0.8
Binding of serum 62 to looped/cyclic peptides of protein X4 of SARS-CoV Urbani [3]: 0.7
Binding of serum London to linear peptides of protein X4 of SARS-CoV Urbani [3]: 0.9
Binding of serum London to looped/cyclic peptides of protein X4 of SARS-CoV Urbani [3]: 0.3
Binding of serum SARS-green to linear peptides of protein X4 of SARS-CoV Urbani [3]: 0.5
Binding of serum SARS-green to looped/cyclic peptides of protein X4 of SARS-CoV Urbani [3]: 0.6
Binding of serum SARS-yellow to linear peptides of protein X4 of SARS-CoV Urbani [3]: 0.3
Binding of serum SARS-yellow to looped/cyclic peptides of protein X4 of SARS-CoV Urbani [3]: 0.5

FHRWHTMVQTCTPNV
Rabbit serum linear peptides [1]: 0.8
Rabbit serum looped peptides [1]: 0.4
Binding of Control Serum Blood-Bank to Looped peptides [2]: 0.4
Binding of Control serum Blood-bank to linear peptides [2]: 0.7
Binding of Control serum LUMC to linear peptides [2]: 0.5
Binding of Control serum LUMC to looped peptides [2]: 0.5
Binding of serum 1a to linear peptides of protein X5 of SARS-CoV Urbani [3]: 0.8
Binding of serum 1a to looped/cyclic peptides of protein X5 of SARS-CoV Urbani [3]: 0.7
Binding of serum 1b to linear peptides of protein X5 of SARS-CoV Urbani [3]: 0.7
Binding of serum 1b to looped/cyclic peptides of protein X5 of SARS-CoV Urbani [3]: 0.6
Binding of serum 2 to linear peptides of protein X5 of SARS-CoV Urbani [3]: 0.9
Binding of serum 2 to looped/cyclic peptides of protein X5 of SARS-CoV Urbani [3]: 0.6
Binding of serum 6 to linear peptides of protein X5 of SARS-CoV Urbani [3]: 0.5
Binding of serum 6 to looped/cyclic peptides of protein X5 of SARS-CoV Urbani [3]: 0.3
Binding of serum 37 to linear peptides of protein X5 of SARS-CoV Urbani [3]: 0.7
Binding of serum 37 to looped/cyclic peptides of protein X5 of SARS-CoV Urbani [3]: 0.5
Binding of serum 62 to linear peptides of protein X5 of SARS-CoV Urbani [3]: 0.7
Binding of serum 62 to looped/cyclic peptides of protein X5 of SARS-CoV Urbani [3]: 0.4
Binding of serum London to linear peptides of protein X5 of SARS-CoV Urbani [3]: 0.7
Binding of serum London to looped/cyclic peptides of protein X5 of SARS-CoV Urbani [3]: 0.2
Binding of serum SARS-green to linear peptides of protein X5 of SARS-CoV Urbani [3]: 0.5
Binding of serum SARS-green to looped/cyclic peptides of protein X5 of SARS-CoV Urbani [3]: 0.5
Binding of serum SARS-yellow to linear peptides of protein X5 of SARS-CoV Urbani [3]: 0.4
Binding of serum SARS-yellow to looped/cyclic peptides of protein X5 of SARS-CoV Urbani [3]: 0.4

KVSTNLCTHSFRKKQ
Binding of a rabbit serum to linear peptides [1]: 0.3
Binding of a rabbit serum to looped peptides [1]: 0.1
Binding of Control Serum Blood-Bank to Looped peptides [2]: 0.4
Binding of Control serum Blood-bank to linear peptides [2]: 1.0
Binding of Control serum LUMC to linear peptides [2]: 0.8
Binding of Control serum LUMC to looped peptides [2]: 0.7
Binding of serum 1a to looped/cyclic peptides of protein X2 of SARS-CoV Urbani [3]: 0.4
Binding of serum 1b to looped/cyclic peptides of protein X2 of SARS-CoV Urbani [3]: 0.3
Binding of serum 2 to looped/cyclic peptides of protein X2 of SARS-CoV Urbani [3]: 0.5
Binding of serum 6 to looped/cyclic peptides of protein X2 of SARS-CoV Urbani [3]: 0.5
Binding of serum 37 to looped/cyclic peptides of protein X2 of SARS-CoV Urbani [3]: 0.4
Binding of serum 62 to looped/cyclic peptides of protein X2 of SARS-CoV Urbani [3]: 0.6
Binding of serum London to looped/cyclic peptides of protein X2 of SARS-CoV Urbani [3]: 0.2
Binding of serum SARS-green to looped/cyclic peptides of protein X2 of SARS-CoV Urbani [3]: 0.3
Binding of serum SARS-yellow to looped/cyclic peptides of protein X2 of SARS-CoV Urbani [3]: 0.5
Recognition of the peptide by sera of SARS-CoV infected individuals, and form (linear, looped/cyclic) in which it is recognized [3]: recognized in linear form

PNVQIHTIDGSSGVA
Binding of a rabbit serum to linear peptides [1]: 0.1
Binding of a rabbit serum to looped peptides [1]: 0.4
Binding of Control Serum Blood-Bank to Looped peptides [2]: 0.5
Binding of Control serum Blood-bank to linear peptides [2]: 0.5
Binding of Control serum LUMC to linear peptides [2]: 0.6
Binding of Control serum LUMC to looped peptides [2]: 0.5
Binding of serum 1a to linear peptides of protein X1 of SARS-CoV Urbani [3]: 0.6
Binding of serum 1a to looped/cyclic peptides of protein X1 of SARS-CoV Urbani [3]: 0.4
Binding of serum 1b to linear peptides of protein X1 of SARS-CoV Urbani [3]: 0.4
Binding of serum 1b to looped/cyclic peptides of protein X1 of SARS-CoV Urbani [3]: 0.3
Binding of serum 2 to linear peptides of protein X1 of SARS-CoV Urbani [3]: 0.5
Binding of serum 2 to looped/cyclic peptides of protein X1 of SARS-CoV Urbani [3]: 0.2
Binding of serum 6 to linear peptides of protein X1 of SARS-CoV Urbani [3]: 0.4
Binding of serum 6 to looped/cyclic peptides of protein X1 of SARS-CoV Urbani [3]: 0.2
Binding of serum 37 to linear peptides of protein X1 of SARS-CoV Urbani [3]: 0.7
Binding of serum 37 to looped/cyclic peptides of protein X1 of SARS-CoV Urbani [3]: 0.3
Binding of serum 62 to linear peptides of protein X1 of SARS-CoV Urbani [3]: 0.6
Binding of serum 62 to looped/cyclic peptides of protein X1 of SARS-CoV Urbani [3]: 0.3
Binding of serum London to linear peptides of protein X1 of SARS-CoV Urbani [3]: 0.3
Binding of serum London to looped/cyclic peptides of protein X1 of SARS-CoV Urbani [3]: 0.2
Binding of serum SARS-green to linear peptides of protein X1 of SARS-CoV Urbani [3]: 0.2
Binding of serum SARS-green to looped/cyclic peptides of protein X1 of SARS-CoV Urbani [3]: 0.2
Binding of serum SARS-yellow to linear peptides of protein X1 of SARS-CoV Urbani [3]: 0.4
Binding of serum SARS-yellow to looped/cyclic peptides of protein X1 of SARS-CoV Urbani [3]: 0.2

NATFFIFNKLVKDPP
Binding of a rabbit serum to linear peptides [1]: 0.1
Binding of a rabbit serum to looped peptides [1]: 0.3
Binding of Control Serum Blood-Bank to Looped peptides [2]: 0.3
Binding of Control serum Blood-bank to linear peptides [2]: 0.4
Binding of Control serum LUMC to linear peptides [2]: 0.4
Binding of Control serum LUMC to looped peptides [2]: 0.4
Binding of serum 1a to linear peptides of protein X1 of SARS-CoV Urbani [3]: 0.6
Binding of serum 1a to looped/cyclic peptides of protein X1 of SARS-CoV Urbani [3]: 0.5
Binding of serum 1b to linear peptides of protein X1 of SARS-CoV Urbani [3]: 0.5
Binding of serum 1b to looped/cyclic peptides of protein X1 of SARS-CoV Urbani [3]: 0.3
Binding of serum 2 to linear peptides of protein X1 of SARS-CoV Urbani [3]: 0.4
Binding of serum 2 to looped/cyclic peptides of protein X1 of SARS-CoV Urbani [3]: 0.3
Binding of serum 6 to linear peptides of protein X1 of SARS-CoV Urbani [3]: 0.4
Binding of serum 6 to looped/cyclic peptides of protein X1 of SARS-CoV Urbani [3]: 0.4
Binding of serum 37 to linear peptides of protein X1 of SARS-CoV Urbani [3]: 0.5
Binding of serum 37 to looped/cyclic peptides of protein X1 of SARS-CoV Urbani [3]: 0.4
Binding of serum 62 to linear peptides of protein X1 of SARS-CoV Urbani [3]: 0.4
Binding of serum 62 to looped/cyclic peptides of protein X1 of SARS-CoV Urbani [3]: 0.4
Binding of serum London to linear peptides of protein X1 of SARS-CoV Urbani [3]: 0.2
Binding of serum London to looped/cyclic peptides of protein X1 of SARS-CoV Urbani [3]: 0.2
Binding of serum SARS-green to linear peptides of protein X1 of SARS-CoV Urbani [3]: 0.2
Binding of serum SARS-green to looped/cyclic peptides of protein X1 of SARS-CoV Urbani [3]: 0.2
Binding of serum SARS-yellow to linear peptides of protein X1 of SARS-CoV Urbani [3]: 0.2
Binding of serum SARS-yellow to looped/cyclic peptides of protein X1 of SARS-CoV Urbani [3]: 0.0

— patent US20070128217A1 (priority 2003, published 2007)
